The record followed here is patent US20100119595A1, “Monounsaturated fatty acids and perhydrocyclopentanophenanthrene nucleus combination molecules, and their precursors, and the use of all of these as weight-loss agents” (priority 2001, published 2010).

SMILES strings stand for the structures. Marks after values point to notes of the source that are not given here.

The nature of assay [1]: Human study of 2 hydroxyestrone oleate (Example 11). Format: in vivo. The conditions noted are these: humans, oral capsule, 0.75 or 0.375 micromoles/kg. The procedure:
In this random, double-blind, placebo controlled study, subjects are selected to one of three groups and take a capsule orally every morning containing one of the following: a) sunflower oil (placebo), b) 2 hydroxyestrone oleate dissolved in sunflower oil at a dose of 0.75 micromoles/kg, or c) 2 hydroxyestrone oleate dissolved in sunflower oil at a dose of 0.375 micromoles/kg. […]
Different tests are performed at least five different times during each study, namely at the screening of potential participants, at the beginning of the study, weekly during the trials, at the end of the first 4 week period and at the end of the second 4 week treatment period. • 1) SCREENING: Subjects are screened to exclude hypothyroidism, pregnancy, and heart disease. […] Subjects selected to participate in the studies have the following initial measurements: WEIGHT, WAIST to HIP RATIO, HEIGHT, BMI (calculated), BODY FAT % & TOTAL BODY FAT (via bioelectrical impedance method). […]
Ad libitum diets are followed, and food intake and appetite are assessed daily by the patient with an appropriate questionnaire and booklet. […]

The nature of assay [2]: Rabbit study at mole/kg dose equivalent to that used for oleoyl-estrone in rats. Format: in vivo, rabbits. An excerpt: The eicosenoic acid-estrogen monoesters mimic the function of the naturally occurring fatty acid monoester, estrone monooleate, as a signal that informs the brain of the size of fat tissue mass. When administered to rabbits, they produce weight reduction of about 20%, by a) decreasing food intake and b) by a new and unexpected mechanism. Eicosenoic acid-estrogen monoesters are useful for the treatment of obesity and/or overweight in mammals, with the advantages of high efficacy and low toxicity.

Assay [3] deals with MCF-7 human breast cancer cell line. Put plainly: MCF-7 human breast cancer cell line test. The format is cell-based. The conditions noted are these: MCF-7 human breast cancer cells. An excerpt:
The practical use of any compound given to humans for the treatment of obesity require, of course, that the compound not only be effective, but able to pass the FDA requirements and be approved as a drug suitable for humans. […] One test used to determine reactivity with human breast cancer cells is the “MCF-7 human breast cancer cell line test”. The lower the concentration of drug required to produce agonist activity, the more potential there is for problems with cancer causing &/or promotion in humans A comfortable level in the pharmaceutical industry would be a reactivity in the micromolar range. In the case of oleyl estrone, agonist activity begins at […]; with estrone eicosenoate, agonist activity begins at a ten times greater concentration of 1.0 nanomolar. This low concentration of agonist activity mitigates the possibility that these compounds would gain FDA approval for either drug.

Assay [4] is described as follows: Rabbit 10-day oral study: body weight and food consumed (Example 1). The conditions noted are these: for FINAL WT.: one rabbit; for WT. Δ w/ Rx 10 days: control +0.14.
Experimental: During the first 3 weeks, rabbits were only weighed and allowed to eat. On the fourth week, all rabbits were given 0.05 cc dose of peanut oil.
Five New Zealand white rabbits were obtained and caged in their natural environment (outside) and fed a cafeteria, ad libitum diet of rabbit chow. […] The appropriate weights of OE or EE were diluted in peanut oil to provide concentrations as follows: 1) OE, 2 mg/0.05 cc; 2) EE, 1 mg/0.05 cc; 3) 0.33 mg/0.05 cc; 4) EE, 0.1mg/0.05 cc, 5) EE, 0.03 mg/0.05 cc
For the initial three weeks, the rabbits were given no medicine or oil. Body weight and food consumed were measured daily; establishing a daily average for food consumed and weight change.
Rabbits received the assigned dose for 10 consecutive days. Rabbit weight (kg) and food eaten (grams) were determined daily.
[5] abbreviates: EE 1 mg/d vs OE 2 mg/d, oral, rabbits.

For `CCCCCCCC/C=C\CCCCCCCC(=O)Oc1cc2c(cc1O)[C@H]1CC[C@]3(C)C(=O)CC[C@H]3[C@@H]1CC2` [2HOE, 2 hydroxyestrone oleate], in assay [1], the appetite entry is recorded as “reduces appetite” and the “weight loss, loss of body fat, and/or decrease of body fat%” value was “produces weight loss”.
For the molecule `CCCCCCCC/C=C\CCCCCCCCCC(=O)Oc1ccc2c(c1)CC[C@@H]1[C@@H]2CC[C@]2(C)C(=O)CC[C@@H]12` [EE, estrone eicosenoate], the “greater reduction in appetite in rabbits than oleoyl-estrone did in rats” value in assay [2] worked out at 50%. The “greater weight loss in rabbits than oleoyl-estrone did in rats” value in assay [2] came out at 60%. Also, in assay [3], the “concentration at which agonist activity begins” value stood at 1.0 nM. Also, the “FINAL WT.” value in assay [4] (EE 0.03 mg/d oral in peanut oil, 10 days, initial wt 4.00 kg) is 4.17* kg; in assay [4] (EE 0.2 mg/d oral in peanut oil, 10 days, initial wt 3.50 kg), 3.56 kg; in assay [4] (EE 0.33 mg/d oral in peanut oil, 10 days, initial wt 4.09 kg), 4.01 kg; in assay [4] (EE 1 mg/d oral in peanut oil, 10 days, initial wt 3.73 kg) it was 3.37 kg. Further, the “WT. Δ w/ Rx 10 days” value in assay [4] (EE 0.03 mg/d oral, 10 days, pre-Rx 10 day avg. +0.125) is recorded as “+0.17 kg”; in assay [4] (EE 0.33 mg/d oral, 10 days, pre-Rx 10 day avg. +0.139) it was −0.08 kg; in assay [4] (EE 1 mg/d oral, 10 days, pre-Rx 10 day avg. +0.129) it was −0.36 kg. In addition, the “FOOD/DAY AVG. w/ Rx” value in assay [4] (EE 0.03 mg/d oral, 10 days, pre-Rx avg 163.6) is listed as 158.5 grams; in assay [4] (EE 0.2 mg/d oral, 10 days, pre-Rx avg 151.1), 131.0 grams; in assay [4] (EE 0.33 mg/d oral, 10 days, pre-Rx avg 151.6), 150.4 grams; in assay [4] (EE 1 mg/d oral, 10 days, pre-Rx avg 138.3), 31.9 grams. Moreover, the “amount of food eaten relative to the OE rabbit” value in assay [4] (setting [5]) is on record as “approximately ⅓”. Besides, the “weight loss relative to OE over a 10-day period” value in assay [4] (setting [5]) is on record as “more than three times the weight loss”. For the same molecule, the “weight gained compared with the Control rabbit” value in assay [4] (EE at 1/10 the dose of OE (0.2 mg/d), 10 days) is reported as “less than half the weight gained by the Control rabbit”. Also, in assay [4] (EE at lowest dose (0.03 mg/d), 10 days), the “weight gained compared with the control” value is listed as “gained more weight than even the control”. In assay [4] (EE at ⅙ the dose of OE (0.33 mg/d vs 2 mg/d), 10 days), the “weight loss less than that resulting from OE” value is reported as 20%.
